Legend:
[1] = target: T1, QR2 (Homo sapiens, UniProt P16083); assay: QR2 activity assay, BNAH fluorescence (standard/primary); type: biochemical; conditions: Figure 2D; readout not stated
T1 construct: purchased Sigma-Aldrich
T1 sequence (P16083 1-231): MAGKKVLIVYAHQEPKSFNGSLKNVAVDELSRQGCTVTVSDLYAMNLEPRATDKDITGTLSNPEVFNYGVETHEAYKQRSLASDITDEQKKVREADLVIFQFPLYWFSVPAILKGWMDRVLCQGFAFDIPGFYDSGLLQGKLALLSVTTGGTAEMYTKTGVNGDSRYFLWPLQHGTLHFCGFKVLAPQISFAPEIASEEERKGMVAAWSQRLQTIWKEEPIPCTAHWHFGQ
From the text: (§1) A drug discovery campaign strategy was initiated to screen compounds for QR2-specific, cell-free inhibition and in vitro activity, followed by SAR optimization (Figure 2A) to achieve highly specific and potent QR2 inhibitor synthesis. In order to establish a varied and chemically amenable starting point, we developed a high-throughput QR2 assay (Supplemental Methods) that we screened against a library with approximately 200,000 compounds. […] Compounds that replicated the initial hit result were then assayed similarly against QR1 to evaluate compound specificity (Figure 2B). From the HTS, a chemically tractable and attractive series of compounds containing a sulfone flanked by an amine and a heterocycle were identified and selected for SAR development (Figure 2C, Supplemental Methods, Supplemental Table 1, and Supplemental Table 2). […]
High Throughput Screen (H TS)
The enzymatic activity of QR 2 (10 nM) was measur ed using menadione (both Sigm a -Aldrich) as subst r at e and dihydro- benzylnicotinamide (BNAH; Tocris) as co-substrate(62). The reaction was performed in 50 mM Tri s HCl, 150 mM NaCl 0.01%Tween- 20 pH=8.5 (Sigma-Aldrich) at r oom tem per atur e. Briefl y, 3 µL of menadione alone (200 µM) or a mixture of menadione and QR2 (200 µM of […]
(§2) menadione and 10 nM of QR2) were dispensed in 1536-well black Nunc plates (Thermo-Fisher) using aMultidrop™ Combi Reagent Dispenser (Thermo-Fisher) and pre-incubated with compounds for 10min. BNAH (200µM) was t hen added (3 µL) to the reaction using a BioNex Solutions BNX1536plate washer and the plates were incubated for another 10 min. Fluorescence intensity was followed in a PHERAstar FS multi-mode plate reader (BMG Labtech) us i ng an optic module with excitation at 360 nm and emission at 470 nm. The initial HTS includedapproximately 200,000 compounds at a single concentrationof 5 µM. The chemical libraries used were Selleck Chemicals Bioactives, the Drug-like set from Enamine, HitFinder collection from Maybridge, Spectrum Collection from Microsource, Lopa c from Sigma -Aldrich and the diversity set s from Chem Div and Che m Br idge .
Initial ‘‘hit’’ compounds were defined as causing >30% reduction of enzyme activity. Compounds suspected to be fluorescent were re -assayed in an absorbance assay at 350 nm using the same reaction but in a higher volume (100 µL), in a transparent plate (Greiner Bio- One). ‘‘Hit’’ compounds resulting from both the fluorescence and absorbance assay wer e t ested in a concentration- response, and IC50 values were de t er mi ne d. In parallel, the same concentration response methodologywas appliedin a selectivity assay where QR2 enzymewas replaced byQR1 […]
Chromatography System, with UV/Vis detector 2489, using XBridge® Prep C18 10 μm 10x250 mm […]
was monitored by Wat er s UPLC-MS system: Acquity UPLC® H class with PDA detector, and using […]

[2] = Solubility in water / saline; type: physicochemical
[3] = target: T2, QR1 (Homo sapiens, UniProt P15559); assay: QR1 selectivity assay, fluorescence; type: biochemical; conditions: Figure 2D; readout not stated
T2 construct: purchased Sigma-Aldrich
From the text: as §1, §2
Initial ‘‘hit’’ compounds were defined as causing >30% reduction of enzyme activity. Compounds suspected to be fluorescent were re -assayed in an absorbance assay at 350 nm using the same reaction but in a higher volume (100 µL), in a transparent plate (Greiner Bio- One). ‘‘Hit’’ compounds resulting from both the fluorescence and absorbance assay wer e t ested in a concentration- response, and IC50 values were de t er mi ne d. In parallel, the same

T2 sequence (P15559 whole entry): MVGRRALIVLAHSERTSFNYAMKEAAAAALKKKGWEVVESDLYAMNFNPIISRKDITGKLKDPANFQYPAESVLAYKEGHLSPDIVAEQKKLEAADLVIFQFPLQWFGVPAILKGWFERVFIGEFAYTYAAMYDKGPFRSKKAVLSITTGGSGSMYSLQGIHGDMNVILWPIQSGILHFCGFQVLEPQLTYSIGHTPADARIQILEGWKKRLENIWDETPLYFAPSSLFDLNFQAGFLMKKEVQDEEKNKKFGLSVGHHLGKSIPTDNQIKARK

Row | SMILES | IC50 [1] | solubility in water [2] | IC50 [3]
1 | Cc1nc(-c2ccc(C)c(S(=O)(=O)N3CCC(C)CC3)c2)cs1 [YB-104] | 7.39 µM |  | 
2 | Cc1ccc(-c2cn3cccc(C)c3n2)cc1S(=O)(=O)N1CCN(C)CC1 [YB-540] | 0.21 µM | water soluble | 
3 | Cc1ccc(-c2nnc(-c3ccccc3)o2)cc1S(=O)(=O)N1CCN(C(=O)c2ccco2)CC1 [YB-789] | 5.71 µM |  | > 9.99 µM
4 | Cc1ccc(-c2cn3cccc(C)c3n2)cc1S(=O)(=O)N1CCN(C(=O)c2ccco2)CC1 [YB-792] | 0.008 µM |  | 3.33 µM
5 | Cc1ccn2cc(-c3ccc(C)c(S(=O)(=O)NCc4cccnc4)c3)nc2c1 [YB-812] | 6.92 µM |  | > 9.99 µM
6 | Cc1ccn2cc(-c3ccc(C)c(S(=O)(=O)Nc4ccc(Cl)cc4)c3)nc2c1 [YB-816] | > 9.99 µM |  | > 9.99 µM
7 | Cc1ccc(-c2nnc(-c3ccccc3)o2)cc1S(=O)(=O)NCCCN1CCCC1=O [YB-818] | > 9.99 µM |  | > 9.99 µM
